Results published in patent US20070093469A1, “Substituted azetidine compounds as cyclooxygenase-1-cyclooxygenase-2 inhibitors, and their preparation and use as medicaments” (LABORATORIOS DEL DR. ESTEVE S.A, priority 2004, published 2007).

Assays:
Cox-1 enzyme = biological target: T1, Cox-1 enzyme (Ovis aries, UniProt P05979); experiment: Cox-1/Cox-2 enzyme assay (Cox-1); assay type: biochemical; settings: for IC50: enzyme assay
T1 construct: purchased Cayman Chemical 60100
T1 sequence (P05979 25-600): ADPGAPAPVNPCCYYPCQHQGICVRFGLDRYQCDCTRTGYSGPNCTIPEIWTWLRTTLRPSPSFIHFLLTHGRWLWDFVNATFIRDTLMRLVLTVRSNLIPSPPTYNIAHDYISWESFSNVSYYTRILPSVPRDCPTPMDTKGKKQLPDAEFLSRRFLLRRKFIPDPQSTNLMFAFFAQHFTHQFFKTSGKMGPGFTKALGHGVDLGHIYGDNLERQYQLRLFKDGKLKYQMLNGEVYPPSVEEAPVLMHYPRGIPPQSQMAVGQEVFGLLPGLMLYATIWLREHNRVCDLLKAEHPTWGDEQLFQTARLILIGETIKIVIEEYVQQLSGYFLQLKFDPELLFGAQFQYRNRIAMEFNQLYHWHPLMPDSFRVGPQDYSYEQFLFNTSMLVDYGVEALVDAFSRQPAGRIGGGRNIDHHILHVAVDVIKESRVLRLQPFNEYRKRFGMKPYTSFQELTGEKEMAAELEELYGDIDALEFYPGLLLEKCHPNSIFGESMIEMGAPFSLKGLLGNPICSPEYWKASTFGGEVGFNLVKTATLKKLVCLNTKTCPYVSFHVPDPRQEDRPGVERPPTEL
Procedure: (§1) I. Cox-1/Cox-2 Enzyme Assay:
(§2) The Cox-1/Cox-2 enzyme assay for the inventive azetidine compounds is carried out according to the following description:
(§3) Immediately after the addition of the substrate, the slope corresponding to the optical density increase at 480 nm is recorded for 1 minute. The reaction is monitored with a Hewlett-Packard 8452A spectrophotometer.

[1] = test system: PGE2 production in rat gastric mucosa; experiment: PGE2 production in rat gastric mucosa; assay type: in vivo; settings: rats, oral route, read-out: PGE2 gastric mucose ED50
Procedure: VI: PGE2 Production in Rat Inflammatory Exudate and Gastric Mucosa
The PGE2 production in rat inflammatory exudate and gastric mucosa is carried out as described in the publication of O Tofanetti et al., “Effect of nimesulide on cyclo-oxygenase activity in rat gastric mucosa and inflammatory exudate”, Med Sci Res 17, 745-746 (1989). The respective part of the description is hereby incorporated by reference and forms part of the present disclosure.
For this text 6 male wistar rats (Interfauna-St Feliú de Codines, Barcelona) of approximately 200 g (each approximately 6 weeks of age) are used. The compounds to be tested are administered via oral route in gum Arabic at 5% (weight/volume) at a rate of 10 ml/kg.
One hour after administration of the compounds and under halothane anaesthesia, each rat is implanted subcutaneously in the interescapular area a 40×15×5 mm polyester sponge, soaked in a 0.5% suspension of carrageenan. Rats are sacrificed 6 hours after the implant, the sponges are removed and squeezed. The exudates are collected and centrifuged at 6000×G for 15 minutes.
The rats's stomachs are removed and the gastric mucosa is detached from the underlying layers and by means of a 10 mm diameter die, mucosa samples from an area between the gastric corpus and pyloric antrum are taken. The mucosal PGE2 is extracted. PGE2 concentrations from the inflammatory exudates and the gastric mucosa are determined by means of inmmunoassay reagents of Cayman Chemical kit, Ann Arbor, Mich., U.S.A. (Catalogue number: 514010) according to the manufacturer's instructions.

rats = experiment: Analgesia test in rats (carrageenan, thermal stimulus); assay type: in vivo; settings: Rattus norvegicus, oral route, 2 hours after administration, read-out: ED50 analgesic activity
Procedure: III: Analgesia Test in Rats
The inventive compounds are tested for analgesic activity as described above is carried out as described in the publication of K. Hargreaves et al., Pain, 32, 77-88, (1988). The respective part of the description is hereby incorporated by reference and forms part of the disclosure.
The rats are transferred to the experimentation laboratory, where they remain in groups of 5, in makrolon cages with a barred floor to avoid coprophagy. At the beginning of the experiment, water and food were removed, and animals were adequately weighed and marked.
Each rat receives via subplantar injection 0.1 ml of sterile saline solution into the left hind paw, followed by 0.1 ml of a 2% (weight/volume) carrageenan suspension in sterile saline solution into the right hind paw.
Two hours after the subplantar injections of carrageenan and vehicle, each rat receives by oral route the compounds to be tested, suspended in 5% (weight/volume) gum arabic, administered at 10 ml per kg of body weight. Two hours after the administration of the compounds to be tested, the values for analgesic activity are determined. To this purpose, the rats are transferred to the methacrylate chambers of an analgesimeter provided with a glass floor. Once the acclimatisation period in the chambers is over (i.e. after 5 minutes) an infra-red beam lamp capable of producing a thermal stimulus, is placed below the rat's paws.
The thermal stimulus, previously calibrated at 10 Amperes, is applied to each of the hind paws with at least 1 minute intervals. The response of the rats to pain consists of raising the paw, thus avoiding contact with the floor. […] The rats are tested once only to avoid possible learning behaviour.

Cox-2 enzyme = biological target: T2, Cox-2 enzyme (Ovis aries, UniProt P79208); experiment: Cox-1/Cox-2 enzyme assay (Cox-2); assay type: biochemical; settings: for IC50: enzyme assay
T2 construct: purchased Cayman Chemical 60120
T2 sequence (P79208 17-603): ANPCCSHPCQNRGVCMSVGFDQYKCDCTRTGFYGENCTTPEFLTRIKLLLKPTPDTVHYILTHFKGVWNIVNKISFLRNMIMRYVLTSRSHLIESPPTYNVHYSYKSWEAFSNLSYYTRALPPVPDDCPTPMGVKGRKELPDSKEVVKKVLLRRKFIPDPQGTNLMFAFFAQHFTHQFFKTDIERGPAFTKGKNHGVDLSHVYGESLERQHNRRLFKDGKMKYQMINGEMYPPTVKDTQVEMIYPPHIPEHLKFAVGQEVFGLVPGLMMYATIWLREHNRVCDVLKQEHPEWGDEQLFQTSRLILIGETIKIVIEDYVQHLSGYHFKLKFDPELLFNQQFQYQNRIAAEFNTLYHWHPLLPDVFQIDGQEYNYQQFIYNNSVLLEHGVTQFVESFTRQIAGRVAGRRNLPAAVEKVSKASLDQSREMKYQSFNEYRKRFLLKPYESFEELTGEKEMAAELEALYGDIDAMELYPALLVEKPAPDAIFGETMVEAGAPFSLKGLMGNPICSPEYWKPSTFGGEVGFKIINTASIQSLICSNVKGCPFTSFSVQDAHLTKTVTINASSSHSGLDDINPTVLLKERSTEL
Procedure: as §1, §2, §3

Compound | inhibition at 50 µM (Cox-1 enzyme; read-out: % inhibition 5 × 10^−5 M COX-1) | ED50 [1] | ED50 (rats) | IC50 (Cox-2 enzyme) | inhibition at 50 µM (Cox-2 enzyme; read-out: % inhibition 5 × 10^−5 M COX-2) | IC50 (Cox-1 enzyme)
CC(C)(C)c1cc(C(=O)N2CC(O)C2)cc(C(C)(C)C)c1 [Example 2, (3,5-di-tert-butyl-phenyly)-(3-hydroxy-azetidin-1-yl)-methanone] | 9% | 3.7 mg/kg | 1.65 mg/kg | 1.8 µM | 78% | 
CC1C(O)CN1C(=O)c1cc(C(C)(C)C)c(O)c(C(C)(C)C)c1 (stereo not shown) [Example 4, (3,5-di-tert-butyl-4-hydroxy-phenyl)-(3-hydroxy-2-methyl-azetidin-1-yl)-methanone] |  | 1 mg/kg | 0.7 mg/kg | 3.75 µM |  | 246 µM
CC(C)(C)c1cc(C(=O)N2CC(O)C2)cc2c1OCC2(C)C [Example 14, (7-tert-butyl-3,3-dimethyl-2,3-dihydro-benzofuran-5-yl)-(3-hydroxy-azetidin-1-yl)-methanone] |  | 2.7 mg/kg | 3 mg/kg | 0.6 µM |  | 48.3 µM
